Consider five molecules from US9827312B2, “Method for carrying therapeutic substances into cells” (MAGFORCE AG, priority 2005, dated 2017).

In one assay the test system is tumor cells (in vitro). Nature of the assay: Destruction of tumor cells in vitro by cefamandole alone. The assay is classed as cell-based. The settings on record: cefamandole without nanoparticles. An excerpt: Cefamandole (CAS No 30034-03-8) is used to combat bacterial infections. […] This substance's potential to combat cancer cells, however, is to be considered to be rather low. […] It is, however, possible to drastically increase the efficacy of cefamandole in the treatment of tumor cells by the simultaneous application of nanoparticles.

For assay [1], the system named is BT20 (breast carcinoma) cells. Nature of the assay: Efficacy of cefamandole/nanoparticle mixture in vitro, BT20 (Example 2). It counts as cell-based, human. As to conditions: 72 hrs incubation, cefamandole 0.016 mg/ml in medium, 136 μl MFL AS M01. On the procedure:
(§1) The experiments in vitro were carried out with the cell lines BT20 (breast carcinoma) and WiDr (colon carcinoma). The tumor cells were taken from tumor tissue of a patient and cultivated as described in DE 199 12 798 C1. 2×10^6 cells, respectively, were prepared in a 75 cm^3 cell culture bottle with 25 ml of cell culture medium (RPMI+10% FBS+1.2 ml of pyruvate for WiDr cells, or respectively BME+10% FBS+pyruvate+5 ml of non-essential amino acids+5 ml glutamine for BT20 cells) for testing the efficacy of the cefamandole/nanoparticle mixture. 136 μl of magnetic fluid MFL AS M01 (iron oxide nanoparticle coated with polycondensed N-(2-aminoethyl)-3-(trimethoxysilyl)propylamine, manufacturer: MagForce Nanotechnologies GmbH, Berlin, Germany) (cFe=2 mol/l) and 390 μl of cefamandole solution (stock solution 1 mg/ml in 0.9% NaCl) were added to said cell suspension.
(§2) After 72 hrs, 30.5% of the BT20 cells and 24% of the WiDr cells had died. Neither cefamandole in the selected concentration, nor the nanoparticle alone, are capable of causing cell death (0% of dead cells). Only the combination of cefamandole and nanoparticles leads to said significant damage of the tumor cells which is due to the transfer of cefamandole into the cells.

Assay [2] has as its system WiDr (colon carcinoma) cells. Nature of the assay: Efficacy of cefamandole/nanoparticle mixture in vitro, WiDr (Example 2). The assay is classed as cell-based, human. As to conditions: 72 hrs incubation, cefamandole 0.016 mg/ml in medium, 136 μl MFL AS M01. The protocol:
as §1, §2

The test system of assay [3] is glioblastoma human cell line RUSIRS1. Nature of the assay: Increase in the activity of cytostatics with nanoparticles (Table 1), RUSIRS1. It counts as cell-based. The settings on record: procedure of example 2. The protocol: as §1
(§3) Corresponding to the experiment procedure according to example 2, the following […] were tested in vitro with the active ingredients listed in table 1: a) glioblastoma human cell line RUSIRS 1; b) breast carcinoma cell lines BT20; c) colon carcinoma cell line WiDR; d) bronchial carcinoma cells NSCLC, e) rectal carcinoma cells and f) prostate carcinoma cell line DU 145.
(§4) In all cases, an increased activity of the cytostatic could be observed. The increase in activity is indicated in parentheses after the respective cytostatic, wherein (+) means an increase of about 5% to 80% and (++) means an increase of 80% to 500%.

Assay [4] concerns breast carcinoma cell lines BT20. Nature of the assay: Increase in the activity of cytostatics with nanoparticles (Table 1), BT20. The assay is classed as cell-based, human. As to conditions: procedure of example 2. The protocol: as §1, §3, §4
Assay [5] has as its system colon carcinoma cell line WiDr. Nature of the assay: Increase in the activity of cytostatics with nanoparticles (Table 1), WiDr. It counts as cell-based, human. The settings on record: procedure of example 2. On the procedure: as §1, §3, §4
In assay [6] the test system is bronchial carcinoma cells NSCLC. Nature of the assay: Increase in the activity of cytostatics with nanoparticles (Table 1), NSCLC. It counts as cell-based. The settings on record: procedure of example 2. On the procedure:
as §1, §3, §4

Another assay relates to rectal carcinoma cells. Nature of the assay: Increase in the activity of cytostatics with nanoparticles (Table 1), rectal carcinoma. The assay is classed as cell-based. The settings on record: procedure of example 2. On the procedure: as §1, §3, §4
The test system of assay [7] is prostate carcinoma cell line DU 145. Nature of the assay: Increase in the activity of cytostatics with nanoparticles (Table 1), DU 145. The assay is classed as cell-based. The settings on record: procedure of example 2. On the procedure:
as §1, §3, §4

The subject of another assay is neuroglioma cell line H4. Nature of the assay: Increase in the activity of cytostatics with nanoparticles (Table 1), H4. It counts as cell-based. As to conditions: procedure of example 2. On the procedure:
as §1, §3, §4

Take `Cn1nnnc1SCC1=C(C(=O)O)N2C(=O)[C@@H](NC(=O)[C@H](O)c3ccccc3)[C@H]2SC1` [cefamandole, Cefamandole]: the “concentration in the cell culture medium needed for destruction of tumor cells” value with tumor cells (in vitro) was not below 0.5 mg/mL. Further, the dead cells in [1] and in assay [2] was 0% each time.

`CCC(C)(C)C(=O)O[C@H]1C[C@@H](C)C=C2C=C[C@H](C)[C@H](CC[C@@H]3C[C@@H](O)CC(=O)O3)[C@H]21` [simvastatin]: the “increase in the activity of cytostatics” value is listed as “(+) ((+) means an increase of about 5% to 80%)” in assay [3]; “(+) ((+) means an increase of about 5% to 80%)” in [4]; “(+) ((+) means an increase of about 5% to 80%)” in [5]; “(++) ((++) means an increase of 80% to 500%)” in [6]; “(+) ((+) means an increase of about 5% to 80%)” in the assay with rectal carcinoma cells; “(+) ((+) means an increase of about 5% to 80%)” in [7]. Also, the “increase in the activity of cytostatics” value in the assay on neuroglioma cell line H4 was “(+) ((+) means an increase of about 5% to 80%)”.

`CN(C)[C@@H]1C(O)=C(C(N)=O)C(=O)[C@@]2(O)C(O)=C3C(=O)c4c(O)cccc4[C@@](C)(O)[C@H]3C[C@@H]12` [tetracycline]: the “increase in the activity of cytostatics” value in [3] is listed as “(+) ((+) means an increase of about 5% to 80%)”; in assay [4], “(+) ((+) means an increase of about 5% to 80%)”; in assay [5], “(+) ((+) means an increase of about 5% to 80%)”; in assay [6], “(+) ((+) means an increase of about 5% to 80%)”; in the assay on rectal carcinoma cells it was “(++) ((++) means an increase of 80% to 500%)”; in assay [7] it was “(++) ((++) means an increase of 80% to 500%)”. Also, the “increase in the activity of cytostatics” value with neuroglioma cell line H4 is “(+) ((+) means an increase of about 5% to 80%)”.

Turning to `NC[C@H]1O[C@H](O[C@H]2[C@H](O)[C@@H](O[C@H]3O[C@H](CO)[C@@H](O)[C@H](N)[C@H]3O)[C@H](N)C[C@@H]2N)[C@H](N)C[C@@H]1O` [tobramycin], the “increase in the activity of cytostatics” value (in assay [3]; in assay [4]; in [5]; in assay [6]; in the assay with rectal carcinoma cells; in [7]) was “(+) ((+) means an increase of about 5% to 80%)” in each case. The “increase in the activity of cytostatics” value with neuroglioma cell line H4 is listed as “(+) ((+) means an increase of about 5% to 80%)”.

As to `CC[C@]1(O)C[C@H]2CN(CCc3c([nH]c4ccccc34)[C@@](C(=O)OC)(c3cc4c(cc3OC)N(C=O)[C@H]3[C@@](O)(C(=O)OC)[C@H](OC(C)=O)[C@]5(CC)C=CCN6CC[C@]43[C@@H]65)C2)C1` [vincristine], the “increase in the activity of cytostatics” value was “(+) ((+) means an increase of about 5% to 80%)” in [3]; “(++) ((++) means an increase of 80% to 500%)” in assay [4]; “(+) ((+) means an increase of about 5% to 80%)” in [5]; “(++) ((++) means an increase of 80% to 500%)” in [6]; “(++) ((++) means an increase of 80% to 500%)” in the assay on rectal carcinoma cells; “(+) ((+) means an increase of about 5% to 80%)” in [7]. The “increase in the activity of cytostatics” value with neuroglioma cell line H4 is “(+) ((+) means an increase of about 5% to 80%)”.
